# Reference: US20250346584A1, “NOVEL KAPPA OPIOID LIGANDS” (The Scripps Research Institute, priority 2012, published 2025)
# Molecular target: kappa opioid receptor (OPRK1) (Homo sapiens (Human), UniProt P41145)
# Assay: OPRK1 antagonist assay (b-arrestin-2-TEV / b-lactamase reporter cell line, EC80 U-50488 challenge)
# Format: cell-based
# Conditions: read-out: IC50 nM (% inhib if other than 50%); antagonist mode vs EC80 U-50488; NA = not active at concentrations up to 10 μM
# kappa opioid receptor (OPRK1), sequence (P41145 whole entry): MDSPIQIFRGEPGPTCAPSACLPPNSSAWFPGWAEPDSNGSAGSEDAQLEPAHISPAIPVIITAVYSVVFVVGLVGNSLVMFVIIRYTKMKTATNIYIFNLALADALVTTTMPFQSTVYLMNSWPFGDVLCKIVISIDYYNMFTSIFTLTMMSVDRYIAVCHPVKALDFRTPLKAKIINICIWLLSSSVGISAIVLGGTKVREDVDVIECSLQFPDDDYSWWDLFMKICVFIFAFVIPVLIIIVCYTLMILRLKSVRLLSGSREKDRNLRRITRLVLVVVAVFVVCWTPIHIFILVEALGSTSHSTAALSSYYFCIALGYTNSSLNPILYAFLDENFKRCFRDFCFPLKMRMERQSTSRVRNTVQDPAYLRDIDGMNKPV
row,Compound,IC50 [nM]
1,COC1CN(c2nc3ccc(C)cc3cc2-c2nc(C3CC3)no2)CCC1NCC(C)C (stereo not drawn) [compound 376],14
2,COC1CN(c2nc(C)c(C)cc2-c2nc(C)no2)CCC1NCC(C)C (stereo not drawn) [compound 378],256
3,CO[C@@H]1CN(c2nc3ccc(C)cc3cc2-c2noc(C)n2)CC[C@@H]1NC1CCCCC1 [compound 382],83
4,COC1CN(c2ncc(C)cc2-c2cn(C)nn2)CCC1NC1CCCCC1 (stereo not drawn) [compound 392],2960
5,Cc1ccc2nc(N3CCC(NCC(C)(C)O)CC3)c(-c3nc(C)no3)cc2c1 [compound 402],16
6,CO[C@@H]1CN(c2nnc(C)cc2C(=O)OC(C)C)CC[C@@H]1NC1CCCCC1 [compound 404],63
7,Cc1cnc(-c2cc(C)cnc2N2CCC(NC3CCCCC3)CC2)nc1 [compound 406],7680
8,COC1CN(c2nnc(C)cc2C(=O)OC(C)C)CCC1NCC(C)C (stereo not drawn) [compound 408],57
9,CO[C@H]1CN(c2nnc(C)cc2C(=O)OC(C)C)CC[C@H]1NC1CCCCC1 [compound 411],10
10,Cc1ccc2nc(N3CCC(NC[C@@H](C)O)CC3)c(-c3nc(C)no3)cc2c1 [compound 421],48
11,COC1CN(c2nc(CO)ccc2-c2nc(C)no2)CCC1NC1CCCCC1 (stereo not drawn) [compound 425],60
12,Cc1ccc2nc(N3CCC(NC4CCC(F)(F)CC4)CC3)c(-c3nc(C)no3)cc2c1 [compound 435],6
13,Cc1ccc2nc(N3CCC(NC4CCC(F)(F)CC4)CC3)c(-c3noc(C)n3)cc2c1 [compound 436],26
14,Cc1ccc2nc(N3CCC(NC4CCC[C@@H]4O)CC3)c(-c3noc(C)n3)cc2c1 (stereo partly drawn) [compound 440],70
15,CCCC(C)NC1CCN(c2nc3ccc(C)cc3cc2-c2noc(C)n2)CC1 (stereo not drawn) [compound 453],85
16,Cc1ccc2nc(N3CCC(NC4CCCCC4)C3)c(-c3nc(C)no3)cc2c1 (stereo not drawn) [compound 461],52
17,COC1CN(c2nc3ccccc3cc2-c2cnc(C)cn2)CCC1NC1CCCCC1 (stereo not drawn) [compound 465],18
18,Cc1cnc(-c2cc3ccccc3nc2N2CCC(NC3CCCCC3)CC2)cn1 [compound 466],24
19,Cc1nc(-c2cc3cc(F)ccc3nc2N2CCC(NC3CCCCC3)CC2)no1 [compound 467],431
20,Cc1nc(-c2cc3cc(F)ccc3nc2N2CCC(NC3CCCC3)CC2)no1 [compound 468],175
21,Cc1nc(-c2cc3cc(F)ccc3nc2N2CCC(NC3CCOCC3)CC2)no1 [compound 469],440

row,Compound,IC50 [nM]
1,CO[C@H]1CN(c2nc3ccccc3cc2-c2cnc(C)cn2)CC[C@H]1NC1CCCCC1 [compound 470],40
2,CO[C@@H]1CN(c2nc3ccccc3cc2-c2cnc(C)cn2)CC[C@@H]1NC1CCCCC1 [compound 471],170
3,CO[C@H]1CN(c2ncc(C)cc2-c2cnc(C)cn2)CC[C@H]1NC1CCCCC1 [compound 472],105
4,Cc1cnc(N2CCC(NC3CCOCC3)CC2)c(-c2cnc(C)cn2)c1 [compound 473],3210
5,Cc1nc(-c2cc3cc(F)ccc3nc2N2CCC(N[C@@H]3CCCC[C@H]3O)CC2)no1 [compound 475],101
6,Cc1noc(-c2cc3cc(F)ccc3nc2N2CCC(NC3CCOCC3)CC2)n1 [compound 476],430
7,CC(=O)c1cc2cc(C)ccc2nc1N1CCC(NC2CCOCC2)CC1 [compound 478],900
8,Cc1nc(-c2cc3ccc(F)cc3nc2N2CCC(NC3CCCC3)CC2)no1 [compound 481],10
9,Cc1nc(-c2cc3ccc(F)cc3nc2N2CCC(NC3CCOCC3)CC2)no1 [compound 482],75
10,CO[C@H]1CN(c2nc3ccc(C)cc3cc2C(C)=O)CC[C@H]1NC1CCCCC1 [compound 483],315
11,Cc1nc(-c2cc3ccc(F)cc3nc2N2CCC(N[C@H]3CCCC[C@@H]3O)CC2)no1 [compound 485],673
12,Cc1nc(-c2cc3ccc(F)cc3nc2N2CCC(N[C@H]3CCCOC3)CC2)no1 [compound 486],1070
13,Cc1ccc2nc(N3CCC(NC4CCCCC4)CC3)c(-c3ccc(C)o3)cc2c1 [compound 488],19
14,Cc1noc(-c2cc3ccc(F)c(C)c3nc2N2CCC(NC3CCCCC3)CC2)n1 [compound 491],33
15,Cc1noc(-c2cc3ccc(F)c(C)c3nc2N2CCC(NC3CCOCC3)CC2)n1 [compound 493],132
16,CO[C@H]1CN(c2nc3cc(F)c(C)cc3cc2-c2nc(C)no2)CC[C@H]1NC1CCCCC1 [compound 496],54
17,CO[C@H]1CN(c2nc3ccc(C)cc3cc2-c2ccc(C)o2)CC[C@H]1NC1CCCCC1 [compound 497],48
18,Cc1cnc(N2CCC(NC3CCCCC3)CC2)c(-c2ccc(C)o2)c1 [compound 499],116
19,Cc1ccc2nc(N3CCC(NC4CCOCC4)CC3)c(-c3ccc(C)o3)cc2c1 [compound 501],331
20,Cc1nc(-c2cc3ccc(F)c(C)c3nc2N2CCC(NC3CCCCC3)CC2)no1 [compound 503],74

# Further molecules by falling IC50, results first:
row,IC50 [nM],Compound
1,16700,COC1CN(c2ncc(C)cc2-c2nccc(C)n2)CCC1NC1CCCCC1 (stereo not drawn) [compound 384]
2,1920,COC1CN(c2nc(C)c(C)nc2-c2nc(C)no2)CCC1NC1CCCCC1 (stereo not drawn) [compound 390]
3,1900,Cc1nc(-c2cc3cc(F)ccc3nc2N2CCC(N[C@H]3CCC[C@@H]3O)CC2)no1 [compound 474]
4,423,CO[C@H]1CN(c2nc3ccc(C)cc3cc2-c2nc(C)no2)CC[C@H]1NC1CCOCC1 [compound 500]
5,347,CO[C@@H]1CN(c2nc3ccc(C)cc3cc2C(C)=O)CC[C@@H]1NC1CCCCC1 [compound 484]
6,211,CC(=O)c1cc2cc(C)ccc2nc1N1CCC(NC2CCCCC2)CC1 [compound 479]
7,106,Cc1ccc2nc(N3CCC(NC[C@H](C)O)CC3)c(-c3nc(C)no3)cc2c1 [compound 422]
8,74,CO[C@@H]1CN(c2nc3c(C)c(F)ccc3cc2-c2nc(C)no2)CC[C@@H]1NC1CCCCC1 [compound 492]
9,69,COC1CN(c2nc3ccc(C)cc3cc2-c2noc(C)n2)CCC1NCC(C)C (stereo not drawn) [compound 377]
10,64,Cc1noc(-c2cc3ccc(F)c(C)c3nc2N2CCC(NCC(C)C)CC2)n1 [compound 494]
11,43,Cc1ccc2nc(N3CCC(NCC4CC4)CC3)c(-c3noc(C)n3)cc2c1 [compound 434]
12,42,Cc1noc(-c2cc3c(F)cccc3nc2N2CCC(NC3CCOCC3)CC2)n1 [compound 477]
13,33,Cc1noc(-c2cc3cc(C)c(F)cc3nc2N2CCC(NCC(C)C)CC2)n1 [compound 498]
14,17,Cc1ccc2nc(N3CCC(NC4CCCC[C@@H]4O)CC3)c(-c3noc(C)n3)cc2c1 (stereo partly drawn) [compound 437]
15,15,CO[C@H]1CN(c2nc3c(C)c(F)ccc3cc2-c2nc(C)no2)CC[C@H]1NC1CCCCC1 [compound 487]
16,13,Cc1nc(-c2cc3cc(C)c(F)cc3nc2N2CCC(NC3CCCCC3)CC2)no1 [compound 495]
17,12,COC1CN(c2nc3ccc(C)cc3cc2-c2nc(C)no2)CCC1NCC(C)C (stereo not drawn) [compound 375]
18,11,Cc1ccc2nc(N3CCC(NC4CCCCC4O)CC3)c(-c3noc(C)n3)cc2c1 (stereo not drawn) [compound 450]
19,8,Cc1nc(-c2cc3ccc(F)cc3nc2N2CCC(NC3CCCCC3)CC2)no1 [compound 480]
